Legend:
[1] = biological target: α4β7 integrin (Homo sapiens (Human), UniProt P13612+P26010); test: Integrin Adhesion Assay: Protocol 4 (MAdCAM-coated plate, RPMI-8866 cells with stable LOF mutation of the ITGB1 gene); format: cell-based; conditions: Protocol 4; RPMI-8866 cells with LOF mutation of ITGB1, MAdCAM; read-out: Mean IC50 α4β7 KO
How it was run: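 RPMI-8866 cells with CRISPR/Cas9 knockout of ITGB1 (2×10^6/mL) were added to MAdCAM-coated wells with compound (1% DMSO) in HEPES/NaCl buffer with 1 mM MnCl2, 0.1 mM CaCl2 and 1% BSA, then incubated 1 h at 37 °C. After four washes, adherent cells were quantified by CellTiter-Glo luminescence. Percent inhibition versus DMSO and control compound was fitted to 4-parameter curves.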

[2] = biological target: α4β1 integrin (Homo sapiens (Human), UniProt P05556+P13612); test: Integrin Adhesion Assay: Protocol 5 (VCAM-coated plate, RPMI-8866 cells with stable LOF mutation of the ITGB7 gene); format: cell-based; conditions: Protocol 5; RPMI-8866 cells with LOF mutation of ITGB7, VCAM; read-out: Mean IC50 α4β1 KO
How it was run: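 RPMI-8866 B cells with CRISPR/Cas9 ITGB7 knockout (clonal, verified by flow cytometry) adhered to VCAM-coated wells for 1 h at 37° C in HEPES/NaCl buffer with 1 mM MnCl2, 0.1 mM CaCl2, 1% BSA, 1% DMSO. Bound cells quantified by CellTiter-Glo luminescence after washing; % inhibition versus DMSO and control, 4-parameter fit.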

Sequence of α4β7 integrin (P13612 34-1032): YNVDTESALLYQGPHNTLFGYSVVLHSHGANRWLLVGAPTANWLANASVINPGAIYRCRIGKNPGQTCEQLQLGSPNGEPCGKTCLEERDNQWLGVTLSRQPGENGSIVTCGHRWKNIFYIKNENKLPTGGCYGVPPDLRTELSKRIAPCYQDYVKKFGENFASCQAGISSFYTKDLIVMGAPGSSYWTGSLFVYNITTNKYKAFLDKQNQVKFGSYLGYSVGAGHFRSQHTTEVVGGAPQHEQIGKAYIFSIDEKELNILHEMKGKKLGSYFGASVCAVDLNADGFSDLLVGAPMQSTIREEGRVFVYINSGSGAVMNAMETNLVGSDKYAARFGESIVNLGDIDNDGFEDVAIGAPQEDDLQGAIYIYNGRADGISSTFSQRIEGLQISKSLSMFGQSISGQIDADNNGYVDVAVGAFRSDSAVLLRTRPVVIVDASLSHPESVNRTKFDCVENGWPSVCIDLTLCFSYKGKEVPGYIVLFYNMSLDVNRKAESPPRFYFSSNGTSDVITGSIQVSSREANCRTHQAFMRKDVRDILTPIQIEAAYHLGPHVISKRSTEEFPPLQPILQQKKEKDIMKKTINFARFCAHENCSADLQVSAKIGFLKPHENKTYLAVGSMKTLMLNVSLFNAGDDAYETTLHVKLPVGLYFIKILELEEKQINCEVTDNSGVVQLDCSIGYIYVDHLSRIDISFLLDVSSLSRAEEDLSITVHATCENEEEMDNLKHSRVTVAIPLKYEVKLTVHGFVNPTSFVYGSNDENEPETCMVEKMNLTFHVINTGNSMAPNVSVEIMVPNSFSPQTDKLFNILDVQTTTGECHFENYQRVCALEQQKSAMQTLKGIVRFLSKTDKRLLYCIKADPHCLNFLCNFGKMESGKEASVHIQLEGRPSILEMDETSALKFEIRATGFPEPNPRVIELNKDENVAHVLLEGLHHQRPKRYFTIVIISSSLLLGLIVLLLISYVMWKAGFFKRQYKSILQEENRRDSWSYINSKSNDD
Sequence of α4β7 integrin (P26010 20-798): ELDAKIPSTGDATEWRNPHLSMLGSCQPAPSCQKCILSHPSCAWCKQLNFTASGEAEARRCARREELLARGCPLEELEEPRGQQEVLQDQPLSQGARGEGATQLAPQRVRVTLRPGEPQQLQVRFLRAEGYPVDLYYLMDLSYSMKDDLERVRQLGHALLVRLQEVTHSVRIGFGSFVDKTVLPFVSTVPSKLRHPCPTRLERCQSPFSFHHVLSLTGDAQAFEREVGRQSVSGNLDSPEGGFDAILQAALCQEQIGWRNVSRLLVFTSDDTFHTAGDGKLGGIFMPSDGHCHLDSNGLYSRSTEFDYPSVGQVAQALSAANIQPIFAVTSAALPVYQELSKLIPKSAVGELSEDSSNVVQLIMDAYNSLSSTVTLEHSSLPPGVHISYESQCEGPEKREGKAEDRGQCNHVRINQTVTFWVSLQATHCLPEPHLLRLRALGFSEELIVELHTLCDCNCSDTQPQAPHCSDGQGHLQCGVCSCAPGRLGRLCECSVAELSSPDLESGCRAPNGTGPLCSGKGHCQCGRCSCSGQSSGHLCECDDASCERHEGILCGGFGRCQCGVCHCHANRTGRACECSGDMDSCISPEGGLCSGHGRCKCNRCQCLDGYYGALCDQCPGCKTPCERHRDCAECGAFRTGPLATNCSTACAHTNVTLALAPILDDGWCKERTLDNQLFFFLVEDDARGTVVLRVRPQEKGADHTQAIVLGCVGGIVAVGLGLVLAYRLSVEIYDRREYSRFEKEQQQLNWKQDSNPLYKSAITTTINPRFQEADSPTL
Sequence of α4β1 integrin (P13612 34-1032): as the sequence (P13612 34-1032) above
Sequence of α4β1 integrin (P05556 21-798): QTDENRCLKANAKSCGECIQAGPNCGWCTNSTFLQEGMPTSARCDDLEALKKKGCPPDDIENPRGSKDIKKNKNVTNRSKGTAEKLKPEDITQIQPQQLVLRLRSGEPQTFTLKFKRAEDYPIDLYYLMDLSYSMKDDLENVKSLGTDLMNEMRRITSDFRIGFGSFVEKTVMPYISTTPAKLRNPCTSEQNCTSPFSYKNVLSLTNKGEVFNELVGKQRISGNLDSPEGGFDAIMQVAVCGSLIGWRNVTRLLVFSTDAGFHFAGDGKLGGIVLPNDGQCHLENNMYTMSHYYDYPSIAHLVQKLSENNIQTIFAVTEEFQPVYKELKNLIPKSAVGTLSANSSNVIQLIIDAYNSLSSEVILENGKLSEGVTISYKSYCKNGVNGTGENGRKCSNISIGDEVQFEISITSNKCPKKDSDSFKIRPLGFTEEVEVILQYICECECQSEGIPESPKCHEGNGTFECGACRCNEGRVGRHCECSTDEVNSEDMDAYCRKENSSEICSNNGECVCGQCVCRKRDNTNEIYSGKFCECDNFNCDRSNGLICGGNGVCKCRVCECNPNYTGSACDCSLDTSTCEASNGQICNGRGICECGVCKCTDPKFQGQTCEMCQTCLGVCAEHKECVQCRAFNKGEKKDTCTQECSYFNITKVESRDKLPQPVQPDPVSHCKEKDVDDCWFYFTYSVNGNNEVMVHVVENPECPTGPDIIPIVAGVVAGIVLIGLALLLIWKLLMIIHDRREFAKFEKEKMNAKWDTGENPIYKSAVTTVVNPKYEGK

| Compound | IC50 [1] | IC50 [2] |
| --- | --- | --- |
| Cc1cc(CCN2CCCCC2)cnc1-c1cccc2c(C[C@H](NC(=O)C3(C(F)(F)F)CCN(CC(F)F)CC3)C(=O)O)cccc12 [Compound 756] | < 10 nM | > 1000 nM |
| CN1CCC(c2cnc(-c3cccc4c(C[C@H](NC(=O)C5(C(F)(F)F)CCN(CC(F)(F)F)CC5)C(=O)O)cccc34)c(C(F)(F)F)c2)CC1 [Compound 757] | < 10 nM | 100 to 1000 nM |
| CN1CCCC(c2cnc(-c3cccc4c(C[C@H](NC(=O)C5(C(F)(F)F)CCN(CC(F)(F)F)CC5)C(=O)O)cccc34)c(C(F)(F)F)c2)C1 (stereo partly shown) [Compound 758] | < 10 nM | 100 to 1000 nM |
| Cc1cc(C2CCN(C)CC2)cnc1-c1cccc2c(C[C@H](NC(=O)C3(C(F)(F)F)CCN(CC(F)(F)F)CC3)C(=O)O)cccc12 [Compound 759] | < 10 nM | > 1000 nM |
| O=C(O)[C@H](Cc1cccc2c(-c3ncc(CN4CCCCC4)cc3Cl)cccc12)NC(=O)C1(C(F)(F)F)CCN(CC(F)(F)F)CC1 [Compound 761] | 10 to 100 nM | > 1000 nM |
| O=C(O)[C@H](Cc1cccc2c(-c3ncc(C(=O)N4CCN(C5CC5)CC4)c4ccccc34)cccc12)NC(=O)C1(C(F)(F)F)CCN(CC(F)(F)F)CC1 [Compound 762] | 10 to 100 nM | > 1000 nM |
| O=C(O)[C@H](Cc1cccc2c(-c3ncc(C(=O)N4CCN(C5CC5)CC4)c4ccccc34)cccc12)NC(=O)C1(C(F)(F)F)CCN(CC(F)F)CC1 [Compound 763] | 10 to 100 nM | > 1000 nM |
| COc1c(-c2cccc3c(C[C@H](NC(=O)C4(C(F)(F)F)CCN(CC(F)F)CC4)C(=O)O)cccc23)cc(CN2CCCCC2)cc1C(F)(F)F [Compound 764] | 10 to 100 nM | > 1000 nM |
| COc1ccc2ccccc2c1-c1cccc2c(C[C@H](NC(=O)C3(C(F)(F)F)CCN(CC(F)(F)F)CC3)C(=O)O)cccc12 [Compound 765] | 10 to 100 nM | > 1000 nM |
| O=C(O)[C@H](Cc1cccc2c(-c3cccc4c3OCCO4)cccc12)NC(=O)C1(C(F)(F)F)CCN(CC(F)(F)F)CC1 [Compound 766] | 10 to 100 nM | > 1000 nM |
| CCOCc1cc(OC)c(-c2cccc3c(C[C@H](NC(=O)C4(C(F)(F)F)CCN(CC(F)(F)F)CC4)C(=O)O)cccc23)cc1CN1CCCCC1 [Compound 768] | < 10 nM | 100 to 1000 nM |
| O=C(O)[C@H](Cc1cccc2c(-c3nccc4ccc(CCCN5CCC6(CC5)CC6)cc34)cccc12)NC(=O)C1(C(F)(F)F)CCN(C2COC2)CC1 [Compound 773] | < 10 nM | 100 to 1000 nM |
| COc1ccc2ccnc(-c3cccc4c(C[C@H](NC(=O)C5(C(F)(F)F)CCN(CC(F)(F)F)CC5)C(=O)O)cccc34)c2c1 [Compound 777] | 10 to 100 nM | > 1000 nM |
| COC(=O)[C@H](Cc1cccc2c(-c3ncc(CN(C)C)c4ccccc34)cccc12)NC(=O)C1(C(F)(F)F)CCN(CC(F)F)CC1 [Compound 778] | < 10 nM | 100 to 1000 nM |
| COC(=O)[C@H](Cc1cccc2c(-c3c(OC)ccc(CN4CCC(C)C(F)(F)CC4)c3OC)cccc12)NC(=O)C1(C(F)(F)F)CCN(CC(F)(F)F)CC1 (stereo partly shown) [Compound 779] | < 10 nM | 100 to 1000 nM |
| COc1ccc(CN2CCC(F)(F)CC2)c(OC)c1-c1cccc2c(C[C@H](NC(=O)C3(C(F)(F)F)CCN(CC(F)(F)F)CC3)C(=O)O)cccc12 [Compound 780] | 10 to 100 nM | > 1000 nM |
| COc1ccc(CN2CC(F)C2)c(OC)c1-c1cccc2c(C[C@H](NC(=O)C3(C(F)(F)F)CCN(CC(F)(F)F)CC3)C(=O)O)cccc12 [Compound 781] | 10 to 100 nM | > 1000 nM |
| COc1ccc(CN2CCCC2)c(OC)c1-c1cccc2c(C[C@H](NC(=O)C3(C(F)(F)F)CCN(CC(F)(F)F)CC3)C(=O)O)cccc12 [Compound 782] | < 10 nM | 100 to 1000 nM |
| COc1ccc(CN2CCC(F)(F)C2)c(OC)c1-c1cccc2c(C[C@H](NC(=O)C3(C(F)(F)F)CCN(CC(F)(F)F)CC3)C(=O)O)cccc12 [Compound 783] | 10 to 100 nM | > 1000 nM |
| COc1ccc(CN2CCCCC2)c(OC)c1-c1cccc2c(C[C@H](NC(=O)C3(C(F)(F)F)CCN(CC(F)(F)F)CC3)C(=O)O)cccc12 [Compound 784] | < 10 nM | 100 to 1000 nM |
| COc1ccc(CN2CCOCC2)c(OC)c1-c1cccc2c(C[C@H](NC(=O)C3(C(F)(F)F)CCN(CC(F)(F)F)CC3)C(=O)O)cccc12 [Compound 785] | 10 to 100 nM | 100 to 1000 nM |
| O=C(O)[C@H](Cc1cccc2c(-c3nccc4ccc(CN5CCCCC5)cc34)cccc12)NC(=O)C1(C(F)(F)F)CCN(CC(F)(F)F)CC1 [Compound 786] | 10 to 100 nM | > 1000 nM |

| Compound | IC50 [1] | IC50 [2] |
| --- | --- | --- |
| O=C(O)[C@H](Cc1cccc2c(-c3ncc(CN4CCCCC4)c4ccccc34)cccc12)NC(=O)C1(C(F)(F)F)CCN(CC(F)(F)F)CC1 [Compound 787] | < 10 nM | > 1000 nM |
| COc1ccc(CN2CCCC(F)C2)c(OC)c1-c1cccc2c(C[C@H](NC(=O)C3(C(F)(F)F)CCN(CC(F)(F)F)CC3)C(=O)O)cccc12 (stereo partly shown) [Compound 788] | < 10 nM | > 1000 nM |
| COc1ccc(CN2CCC(C)(C)CC2)c(OC)c1-c1cccc2c(C[C@H](NC(=O)C3(C(F)(F)F)CCN(CC(F)(F)F)CC3)C(=O)O)cccc12 [Compound 789] | < 10 nM | 100 to 1000 nM |
| COc1ccc(CN2CCCC(C)C2)c(OC)c1-c1cccc2c(C[C@H](NC(=O)C3(C(F)(F)F)CCN(CC(F)(F)F)CC3)C(=O)O)cccc12 (stereo partly shown) [Compound 790] | < 10 nM | 100 to 1000 nM |
| COc1ccc(CN2CCCC(C)(C)C2)c(OC)c1-c1cccc2c(C[C@H](NC(=O)C3(C(F)(F)F)CCN(CC(F)(F)F)CC3)C(=O)O)cccc12 [Compound 791] | < 10 nM | > 1000 nM |
| COc1c(CN2CCCCC2)cc2cccnc2c1-c1cccc2c(C[C@H](NC(=O)C3(C(F)(F)F)CCN(CC(F)(F)F)CC3)C(=O)O)cccc12 [Compound 792] | 10 to 100 nM | > 1000 nM |
| O=C(O)[C@H](Cc1cccc2c(-c3ncccc3CN3CCCCC3)cccc12)NC(=O)C1(C(F)(F)F)CCN(CC(F)(F)F)CC1 [Compound 793] | 10 to 100 nM | > 1000 nM |
| COc1cc(CN2CCCCC2)cc(OC)c1-c1cccc2c(C[C@H](NC(=O)C3(C(F)(F)F)CCN(CC(F)(F)F)CC3)C(=O)O)cccc12 [Compound 794] | < 10 nM | 100 to 1000 nM |
| COc1cc(CN2CCC(F)(F)CC2)cc(OC)c1-c1cccc2c(C[C@H](NC(=O)C3(C(F)(F)F)CCN(CC(F)(F)F)CC3)C(=O)O)cccc12 [Compound 795] | < 10 nM | 100 to 1000 nM |
| COc1cc(CN2CCCC2)cc(OC)c1-c1cccc2c(C[C@H](NC(=O)C3(C(F)(F)F)CCN(CC(F)(F)F)CC3)C(=O)O)cccc12 [Compound 796] | < 10 nM | 100 to 1000 nM |
| COc1cc(CN2CCC(F)(F)C2)cc(OC)c1-c1cccc2c(C[C@H](NC(=O)C3(C(F)(F)F)CCN(CC(F)(F)F)CC3)C(=O)O)cccc12 [Compound 797] | < 10 nM | > 1000 nM |
| COc1ccc(CN2CCCCC2)nc1-c1cccc2c(C[C@H](NC(=O)C3(C(F)(F)F)CCN(CC(F)(F)F)CC3)C(=O)O)cccc12 [Compound 798] | < 10 nM | > 1000 nM |
| COc1c(CN2CCCCC2)ccc(Cl)c1-c1cccc2c(C[C@H](NC(=O)C3(C(F)(F)F)CCN(CC(F)(F)F)CC3)C(=O)O)cccc12 [Compound 799] | < 10 nM | > 1000 nM |
| COc1cc(CN2CCCCC2)cnc1-c1cccc2c(C[C@H](NC(=O)C3(C(F)(F)F)CCN(CC(F)(F)F)CC3)C(=O)O)cccc12 [Compound 800] | < 10 nM | > 1000 nM |
| O=C(O)[C@H](Cc1cccc2c(-c3c(CN4CCCCC4)ccc4ccncc34)cccc12)NC(=O)C1(C(F)(F)F)CCN(CC(F)(F)F)CC1 [Compound 802] | < 10 nM | > 1000 nM |
| O=C(O)[C@H](Cc1cccc2c(-c3cccc4c(CN5CCCCC5)cncc34)cccc12)NC(=O)C1(C(F)(F)F)CCN(CC(F)(F)F)CC1 [Compound 803] | 10 to 100 nM | > 1000 nM |
| COc1cc(CN2CCCCC2)cc(Cl)c1-c1cccc2c(C[C@H](NC(=O)C3(C(F)(F)F)CCN(CC(F)(F)F)CC3)C(=O)O)cccc12 [Compound 804] | < 10 nM | 100 to 1000 nM |
| COc1ccc(CN2CCN(CC(C)C)CC2)c(OC)c1-c1cccc2c(C[C@H](NC(=O)C3(C(F)(F)F)CCN(CC(F)(F)F)CC3)C(=O)O)cccc12 [Compound 805] | < 10 nM | 100 to 1000 nM |
| COc1ccc(CN2CCN(Cc3ccc(C(F)(F)F)cc3)CC2)c(OC)c1-c1cccc2c(C[C@H](NC(=O)C3(C(F)(F)F)CCN(CC(F)(F)F)CC3)C(=O)O)cccc12 [Compound 806] | 10 to 100 nM | > 1000 nM |
| COc1ccc(CN2CCC(c3ccccc3)CC2)c(OC)c1-c1cccc2c(C[C@H](NC(=O)C3(C(F)(F)F)CCN(CC(F)(F)F)CC3)C(=O)O)cccc12 [Compound 807] | < 10 nM | > 1000 nM |
| COc1ccc(CN2CCC(c3ccncc3)CC2)c(OC)c1-c1cccc2c(C[C@H](NC(=O)C3(C(F)(F)F)CCN(CC(F)(F)F)CC3)C(=O)O)cccc12 [Compound 808] | < 10 nM | 100 to 1000 nM |
| COc1ccc(CN2CCCC3(CCN(Cc4ccccc4)CC3)C2)c(OC)c1-c1cccc2c(C[C@H](NC(=O)C3(C(F)(F)F)CCN(CC(F)(F)F)CC3)C(=O)O)cccc12 [Compound 809] | < 10 nM | 100 to 1000 nM |

Source: US20250313535A1, “ALPHA 4 BETA 7 INTEGRIN MODULATORS AND USES THEREOF” (DICE MOLECULES SV, INC., priority 2022, published 2025)
